Measurements: BigSolDB 2.1

CC1(C)CC(NCCCCCCNC2CC(C)(C)NC(C)(C)C2)CC(C)(C)N1
solubility (mole fraction)
Conditions | in acetone | in acetonitrile | in ethyl acetate | in isobutyl acetate | in isopropyl acetate | in methyl acetate | in n-propyl acetate
273.15 K | 0.00859 | 0.00115 | 0.0288 | 0.0497 | 0.0408 | 0.0224 | 0.0341
278.15 K | 0.013 | 0.00183 | 0.0396 | 0.0625 | 0.0549 | 0.0321 | 0.046
283.15 K | 0.0191 | 0.00233 | 0.056 | 0.0831 | 0.0736 | 0.0448 | 0.063
288.15 K | 0.029 | 0.00371 | 0.0776 | 0.108 | 0.0983 | 0.0663 | 0.084
293.15 K | 0.0467 | 0.00537 | 0.108 | 0.139 | 0.128 | 0.102 | 0.113
298.15 K | 0.0737 | 0.00821 | 0.145 | 0.178 | 0.165 | 0.142 | 0.152
303.15 K | 0.117 | 0.0139 | 0.193 | 0.226 | 0.212 | 0.185 | 0.2
